# Data reported in ChEMBL document CHEMBL4392870, “Isolation and Biological Activity of 8- Epitetrodotoxin and the Structure of a Possible Biosynthetic Shunt Product of Tetrodotoxin, Cep-226A, from the Newt Cynops ensicauda popei” (J Nat Prod, 2019).
# Key:
# [1] = Inhibition of NaV in mouse Neuro2a cells assessed as suppression of ouabain/veratridine-induced reduction in cell viability measured after 20 hrs by WST8 assay
# [2] = species on record: Rana temporaria
# [3] = Inhibition of NaV in mouse Neuro2a cells assessed as suppression of ouabain/veratridine-induced reduction in cell viability measured after 24 hrs by WST8 assay; type: cell-based
Structure (SMILES),EC50 [1] [nM],ED50 [2] [nM],EC50 [3] [nM]
NC1=N[C@H](O)[C@H]2[C@H]3O[C@]4(O)O[C@@H]([C@@H](O)[C@@]2(N1)[C@@H]4O)[C@@]3(O)CO,33,96,
NC1=N[C@H](O)[C@H]2[C@H]3O[C@]4(O)O[C@@H]([C@@H](O)[C@@]2(N1)[C@@H]4O)[C@]3(O)CO [TETRODOTOXIN],1.9,4.1,
NC1=N[C@H](O)[C@H]2[C@H]3O[C@]4(O)O[C@@H](C[C@@]2(N1)[C@@H]4O)[C@]3(O)CO,,,250
NC1=N[C@H](O)[C@H]2[C@H]3O[C@]4(O)O[C@@H]([C@H](O)[C@@]2(N1)[C@@H]4O)[C@]3(O)CO,110,,
